Assay results as given in ChEMBL document CHEMBL1145206, “Design, synthesis and structure-activity relationships of novel taxane-based multidrug resistance reversal agents” (2005).

Experiments:
MDA-MB-435 = test: MDR-reversal activity evaluated against the resistant human breast tumor cell line MDA-435/LCC6-MDR; assay type: functional; parameters: concentration or dose not given beside the values
MCF7R = test: MDR-reversal activity evaluated against the resistant human breast tumor cell line MCF7-R; assay type: functional; parameters: concentration or dose not given beside the values

SMILES	Reduction (MDA-MB-435)	Reduction (MCF7R)
CCC(=O)O[C@H]1C(=O)[C@]2(C)[C@@H](OC(=O)/C=C/c3ccc(C(=O)c4ccccc4)cc3)C[C@H]3OC[C@@]3(OC(C)=O)[C@H]2[C@H](OC(=O)c2ccccc2)[C@]2(O)C[C@H](OC(C)=O)C(C)=C1C2(C)C	88%	–
CC(=O)O[C@H]1C(=O)[C@]2(C)[C@@H](OC(=O)/C=C/c3ccc(C(=O)c4ccccc4)cc3)C[C@H]3OC[C@@]3(OC(C)=O)[C@H]2[C@H](OC(=O)c2ccccc2)[C@]2(O)C[C@H](OC(C)=O)C(C)=C1C2(C)C	92%	99.7%
CC(=O)O[C@@]12CO[C@@H]1C[C@H](O)[C@@]1(C)C(=O)[C@H](OC(=O)/C=C/c3ccc(C(=O)c4ccccc4)cc3)C3=C(C)[C@@H](O)C[C@@](O)([C@@H](OC(=O)c4ccccc4)[C@H]21)C3(C)C	–	95%
CC(=O)O[C@@]12CO[C@@H]1C[C@H](O)[C@@]1(C)C(=O)[C@H](O)C3=C(C)[C@@H](OC(=O)/C=C/c4ccc(C(=O)c5ccccc5)cc4)C[C@@](O)([C@@H](OC(=O)c4ccccc4)[C@H]21)C3(C)C	0%	–
COc1ccc(CC(=O)O[C@H]2C(=O)[C@]3(C)[C@@H](OC(=O)/C=C/c4ccc(C(=O)c5ccccc5)cc4)C[C@H]4OC[C@@]4(OC(C)=O)[C@H]3[C@H](OC(=O)c3ccccc3)[C@]3(O)C[C@H](OC(C)=O)C(C)=C2C3(C)C)cc1	7%	–
CC(=O)O[C@H]1C(=O)[C@]2(C)[C@@H](OC(=O)/C=C/c3ccc4ccccc4c3)C[C@H]3OC[C@@]3(OC(C)=O)[C@H]2[C@H](OC(=O)c2ccccc2)[C@]2(O)C[C@H](OC(C)=O)C(C)=C1C2(C)C	–	99.3%
CC(=O)O[C@H]1C(=O)[C@]2(C)[C@@H](OC(=O)c3ccc4ccccc4c3)C[C@H]3OC[C@@]3(OC(C)=O)[C@H]2[C@H](OC(=O)c2ccccc2)[C@]2(O)C[C@H](O)C(C)=C1C2(C)C	–	97.5%
CC(=O)O[C@H]1C(=O)[C@]2(C)[C@@H](OC(C)=O)C[C@H]3OC[C@@]3(OC(C)=O)[C@H]2[C@H](OC(=O)/C=C/c2ccc(C(=O)c3ccccc3)cc2)[C@]2(O)C[C@H](OC(C)=O)C(C)=C1C2(C)C	27%	–
CC(=O)O[C@@]12CO[C@@H]1C[C@H](O)[C@@]1(C)C(=O)[C@H](O)C3=C(C)[C@@H](OC(=O)CCc4ccc5ccccc5c4)C[C@@](O)([C@@H](OC(=O)c4ccccc4)[C@H]21)C3(C)C	37%	–
COC(=O)O[C@H]1C(=O)[C@]2(C)[C@@H](OC(=O)/C=C/c3ccc(C(=O)c4ccccc4)cc3)C[C@H]3OC[C@@]3(OC(C)=O)[C@H]2[C@H](OC(=O)c2ccccc2)[C@]2(O)C[C@H](OC(C)=O)C(C)=C1C2(C)C	91%	–
CC(=O)O[C@H]1C(=O)[C@]2(C)[C@@H](OC(=O)/C=C/c3ccc(C(=O)c4ccccc4)cc3)C[C@H]3OC[C@@]3(OC(C)=O)[C@H]2[C@H](OC(=O)C2CCCCC2)[C@]2(O)C[C@H](OC(C)=O)C(C)=C1C2(C)C	86%	–
CC(=O)O[C@@]12CO[C@@H]1C[C@H](OC(=O)/C=C/c1ccc3ccccc3c1)[C@@]1(C)C(=O)[C@H](OC(=O)/C=C/c3ccc4ccccc4c3)C3=C(C)[C@@H](O)C[C@@](O)([C@@H](OC(=O)c4ccccc4)[C@H]21)C3(C)C	–	45%
CC(=O)O[C@H]1C(=O)[C@]2(C)[C@@H](OC(=O)/C=C/c3cccc4ccccc34)C[C@H]3OC[C@@]3(OC(C)=O)[C@H]2[C@H](OC(=O)c2ccccc2)[C@]2(O)C[C@H](O)C(C)=C1C2(C)C	50%	96%
CC(=O)O[C@H]1C(=O)[C@]2(C)[C@@H](OC(=O)CCc3cccc4ccccc34)C[C@H]3OC[C@@]3(OC(C)=O)[C@H]2[C@H](OC(=O)c2ccccc2)[C@]2(O)C[C@H](O)C(C)=C1C2(C)C	–	96%
CC(=O)O[C@H]1C(=O)[C@]2(C)[C@@H](OC(=O)CCC3CCCC4CCCCC43)C[C@H]3OC[C@@]3(OC(C)=O)[C@H]2[C@H](OC(=O)C2CCCCC2)[C@]2(O)C[C@H](O)C(C)=C1C2(C)C (stereo not given in full)	–	81%
COc1cccc(C(=O)O[C@H]2[C@@H]3[C@]4(OC(C)=O)CO[C@@H]4C[C@H](OC(=O)/C=C/c4ccc(C(=O)c5ccccc5)cc4)[C@@]3(C)C(=O)[C@H](OC(C)=O)C3=C(C)[C@@H](OC(C)=O)C[C@]2(O)C3(C)C)c1	95%	–
CC(=O)O[C@@]12CO[C@@H]1C[C@H](OC(=O)/C=C/c1ccc3ccccc3c1)[C@@]1(C)C(=O)[C@H](OC(=O)CCc3ccc(C(=O)c4ccccc4)cc3)C3=C(C)[C@@H](O)C[C@@](O)([C@@H](OC(=O)c4ccccc4)[C@H]21)C3(C)C	–	0%
CC(=O)O[C@@]12CO[C@@H]1C[C@H](OC(=O)CCc1ccc(C(=O)c3ccccc3)cc1)[C@@]1(C)C(=O)[C@H](OC(=O)CCc3ccc(C(=O)c4ccccc4)cc3)C3=C(C)[C@@H](O)C[C@@](O)([C@@H](OC(=O)c4ccccc4)[C@H]21)C3(C)C	–	99.7%
CC(=O)O[C@H]1C[C@@]2(O)[C@@H](OC(=O)c3ccccc3)[C@@H]3[C@]4(OC(C)=O)CO[C@@H]4C[C@H](OC(=O)/C=C/c4ccc(C(=O)c5ccccc5)cc4)[C@@]3(C)C(=O)[C@H](OC(=O)/C=C/c3ccccc3)C(=C1C)C2(C)C	11%	–
CC(=O)O[C@H]1C[C@@]2(O)[C@@H](OC(=O)c3ccccc3)[C@@H]3[C@]4(OC(C)=O)CO[C@@H]4C[C@H](OC(=O)/C=C/c4ccc(C(=O)c5ccccc5)cc4)[C@@]3(C)C(=O)[C@H](OC(=O)OCc3ccccc3)C(=C1C)C2(C)C	10%	–
CC(=O)O[C@H]1C(=O)[C@]2(C)[C@@H](OC(C)=O)C[C@H]3OC[C@@]3(OC(C)=O)[C@H]2[C@H](OC(=O)CCc2ccc3ccccc3c2)[C@]2(O)C[C@H](OC(C)=O)C(C)=C1C2(C)C	24%	–
CC(=O)O[C@H]1C(=O)[C@]2(C)[C@@H](OC(=O)CNC(=O)c3ccc4ccccc4c3)C[C@H]3OC[C@@]3(OC(C)=O)[C@H]2[C@H](OC(=O)c2ccccc2)[C@]2(O)C[C@H](O)C(C)=C1C2(C)C	–	42%
CC(=O)O[C@H]1C(=O)[C@]2(C)[C@@H](OC(=O)/C=C/c3ccc(C(=O)c4ccccc4)cc3)C[C@H]3OC[C@@]3(OC(C)=O)[C@H]2[C@H](OC(=O)c2ccccc2)[C@]2(O)C[C@H](O)C(C)=C1C2(C)C	–	99.8%
